From US6830893B2 (priority 1999, dated 2004)
“Also recorded” adds a separate entry of the source. Where two headings read alike, the source gives them in different places.

Experiments:
FPRL1 [1] = target: T1, FPRL1 (Homo sapiens, UniProt P25090); test: Chemotaxis of FPRL1/293 cells; type: cell-based; conditions: for migration / chemotaxis of FPRL1/293 cells: wide range of concentrations
T1 construct: expressed in transfected cells; host or cells: human embryonic kidney (HEK) 293 cells, designated FPRL1/293
T1 sequence (P25090 1-351): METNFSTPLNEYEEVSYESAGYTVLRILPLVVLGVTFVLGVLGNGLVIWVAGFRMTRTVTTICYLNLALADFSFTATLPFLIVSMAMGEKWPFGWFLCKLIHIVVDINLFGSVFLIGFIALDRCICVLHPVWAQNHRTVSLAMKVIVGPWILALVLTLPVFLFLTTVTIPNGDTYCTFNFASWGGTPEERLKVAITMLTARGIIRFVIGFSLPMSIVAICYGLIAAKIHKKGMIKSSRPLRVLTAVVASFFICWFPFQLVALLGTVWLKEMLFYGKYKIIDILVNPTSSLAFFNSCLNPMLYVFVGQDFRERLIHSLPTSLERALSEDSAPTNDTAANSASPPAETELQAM
Method: The chemotactic response of cells transfected with a nucleic acid encoding FPR or FPRL1 was tested as another sensitive parameter to assess the receptor targets of T21/DP107. (Gong et al., J. Biol. Chem. 273: 4289 (1998); Gong et al., J. Biol. Chem. 272:11682 (1997); and Ben-Baruch et al., J. Biol. Chem. 270: 22123 (1995)). Accordingly, different concentrations of T21/DP107 were placed in the lower wells of a chemotaxis chamber and a cell suspension was placed in the upper wells. The upper and lower wells were separated by polycarbonate filters precoated with mouse collagen type I. After incubation, the cells that migrated across the filters were stained and counted. […] The CI (chemotaxis index), which represents the fold increase of leukocyte migration in response to T21/DP107 over control medium, was also determined. […] (FIG. 9B).
Leukocytes, ETFR and FPRL1/293 cell migration was assessed using a 48-well microchemotaxis chamber technique as previously described. (Gong et al., J. Biol. Chem. 273: 4289 (1998); Gong et al., J. Biol. Chem. 272: 11682 (1997); and Kliger et al., J. Biol. Chem. 272: 13496 (1997)). Different concentrations of stimulants were placed in wells of the lower compartment of the chamber (Neuro Probe, Cabin John, Mass.), the cell suspension was seeded in wells of the upper compartment which was separated from the lower compartment by a polycarbonate filter (Osmonics, Livermore, Calif.; 5 μm-pore size for leukocytes, 10 μm pore-size for ETFR and FPRL1/293 cells). For CD3+ T lymphocytes, the filters were precoated with 20 μg/ml bovine fibronectin (Sigma). The filters for ETFR and FPRL1/293 cell migration were precoated with 50 μg/ml collagen type I (Collaborative Biomedical products, Bedford, Mass.) to favor the attachment of the cells. After incubation at 37° C. (90 min for monocytes, 60 min for neutrophils, 180 min for T cells and 300 min for ETFR or FPRL1/293 cells), the filters were removed, stained and the cells migrating across the filter were counted by light microscopy after coding the samples. […] The significance of the increase in cell migration was determined using Student's t test and CI≧2 was statistically significant compared to medium control (at least p<0.05).

neutrophils = test: Calcium mobilization (Fura-2) in human neutrophils; type: cell-based
human monocytes = test: Calcium mobilization (Fura-2) in human monocytes; type: cell-based
FPRL1 [2] = target: T1, FPRL1; type: cell-based
Method: (Prossnitz and Ye, Pharmacol. Ther. 74: 73 (1997); Murphy, The N-formyl peptide chemotactic receptors, Chemoattractant ligands and their receptors. CRC Press, Boca Raton, p. 269 (1996); and Gao and M. Murphy, J. Biol. Chem. 268: 25395 (1993)).
(§1) Calcium mobilization was assayed by incubating 107/ml of monocytes, neutrophils, FPRL1 or ETFR transfectants in loading buffer containing 138 mM NaCl, 6 mM KCl, 1 mM CaCl2, 10 mM HEPES (pH 7.4), 5 mM glucose, 0.1% BSA with 5 μM Fura-2 (Sigma) at 37° C. for 30 min. The dye-loaded cells were washed and resuspended in fresh loading buffer. The cells were then transferred into quartz cuvettes ([…] in 2 ml) which were placed in a luminescence spectrometer LS50 B (Perkin-Elmer Limited, Beaconsfield, England). Stimulants at different concentrations were added in a volume of 20 μl to the cuvettes at indicated time points. The ratio of fluorescence at 340 and 380 nm wavelength was calculated using the FL WinLab program (Perkin Elmer).

[3] = system: mock-transfected parental cells; test: Calcium mobilization in parental or mock-transfected rat basophil cell line; type: cell-based; conditions: rat basophil cell line without FPR
Method: as §1, with “neutrophils” for “neutrophils, FPRL1”, “cells” for “transfectants”, “transfered” for “transferred”

mock-transfected cells = test: Chemotaxis of mock-transfected cells; type: cell-based, rat; conditions: FIG. 3E
human neutrophils = type: cell-based
HEK 293 cells = test: Calcium mobilization in parental or mock transfected HEK 293 cells; type: cell-based, human; conditions: control experiments
Method: (FIGS. 8C1, 8C2, 8F1, and 8F2).
as §1

[4] = system: human peripheral blood monocytes; type: cell-based
HIV-1 = conditions: T lymphocyte tropic and monocyte tropic HIV-1; Lawless et al. 1996; cited from earlier work
[5] = monocytes, pertussis toxin at 100 ng/ml for 30 min at 37° C. (FIG. 1B)
[6] = monocytes, pertussis toxin at 100 ng/ml for 30 min at 37° C. (FIG. 6B)

Compound: CCCCC[C@H](O)/C=C/C=C\C=C\C=C\[C@@H](O)[C@@H](O)CCCC(=O)O [LXA4, lipoxin A4]
- migration / chemotaxis of FPRL1/293 cells (FPRL1 [1]): did not detect significant induction
- migration / chemotaxis of FPRL1/293 cells (FPRL1 [1]; listed as lipoxin A4): not able to induce
- inhibition of T21/DP107 signaling (neutrophils; phagocytes (neutrophils), commercially available LXA4 (Biomol)): nor did we observe inhibition
- inhibition of T21/DP107 signaling (human monocytes; phagocytes (monocytes), commercially available LXA4 (Biomol)): nor did we observe inhibition
- induction of Ca++ mobilization in FPRL1 expressing cells (FPRL1 [2]; FPRL1/293 cells): did not detect significant induction
- inhibition of T21/DP107 signaling (FPRL1 [2]; FPRL1/293 cells, commercially available LXA4 (Biomol)): nor did we observe inhibition
- induction of Ca++ mobilization in FPRL1 expressing cells (FPRL1 [2]; FPRL1/293 cells, listed as lipoxin A4): not able to induce

Compound: CSCC[C@H](NC=O)C(=O)N[C@@H](CC(C)C)C(=O)N[C@@H](Cc1ccccc1)C(=O)O [fMLP, N-formyl-methionyl-leucyl-phenylalanine]
- Ca++ flux in parental or mock-transfected cells [3]: Neither peptide stimulated; also recorded: did not induce any
- migration of mock-transfected cells (mock-transfected cells): did not induce migration
- migration / chemotaxis of FPRL1 expressing cells (FPRL1 [1]; at concentrations as high as 50 μM (5×10−5 M)): does not induce significant chemotaxis; also recorded: failed to induce significant migration
- migration / chemotaxis of FPRL1/293 cells (FPRL1 [1]): failed to migrate
- migration across the filters (microscopy at 200× magnification) (human neutrophils): significant migration
- desensitizing effect on T20/DP178-induced Ca++ mobilization (neutrophils; neutrophils, fMLP 100 nM, T20/DP178 100 nM): desensitizes; also recorded: marked desensitizing effect
- desensitizing effect on T21/DP107-induced Ca++ mobilization (neutrophils; neutrophils, high concentrations (≧1 μM) of fMLP, T21/DP107 1 μM): desensitizes; also recorded: partial desensitizing effect
- desensitizing effect on T20/DP178-induced Ca++ mobilization (human monocytes; monocytes, fMLP 100 nM, T20/DP178 100 nM): desensitizes; also recorded: marked desensitizing effect
- desensitizing effect on T21/DP107-induced Ca++ mobilization (human monocytes; monocytes, high concentrations (≧1 μM) of fMLP, T21/DP107 1 μM): desensitizes; also recorded: partial desensitizing effect
- desensitization of T21/DP107-induced Ca++ mobilization (FPRL1 [2]): desensitizes
- minimal effective concentration to induce Ca++ mobilization (FPRL1 [2]): low μM range
- Ca++ mobilization in parental or mock transfected HEK 293 cells (HEK 293 cells): did not induce any
- migration across the filters (microscopy at 200× magnification) ([4]; monocytes, 100 nM): significant migration

Compound: CO[C@H]1[C@@H](OC)C[C@H](C)[C@@H](OC)C2=CC(=O)C=C(NC(=O)/C(C)=C/C=C\[C@H](OC)[C@@H](OC(N)=O)/C(C)=C/[C@@H]1C)C2=O [herbimycin A]
- inhibition of T20/DP178-induced migration by pretreatment of the cells (human neutrophils; neutrophils): not
- inhibition of T21/DP107-induced migration by pretreatment of the cells (human neutrophils; neutrophils): not
- inhibition of T20/DP178-induced migration by pretreatment of the cells [4, 5]: not
- inhibition of T21/DP107-induced migration by pretreatment of the cells [4, 6]: not

Compound: QNQQEKNEQELLELDKWASLWNWF [T914]
- anti-HIV-1 fusion activity (HIV-1): ineffective

Compound: cholera toxin
- inhibition of T20/DP178-induced migration by pretreatment of the cells (human neutrophils): not
- inhibition of T21/DP107-induced migration by pretreatment of the cells (human neutrophils): not
- inhibition of T20/DP178-induced migration by pretreatment of the cells [4]: not
- inhibition of T21/DP107-induced migration by pretreatment of the cells [4]: not

Compound: pertussis toxin
- inhibition of T20/DP178-induced migration by pretreatment of the cells (human neutrophils; neutrophils): completely inhibited
- inhibition of T21/DP107-induced migration by pretreatment of the cells (human neutrophils; neutrophils): completely inhibited
- inhibition of T20/DP178-induced migration by pretreatment of the cells [4, 5]: completely inhibited
- inhibition of T21/DP107-induced migration by pretreatment of the cells [4, 6]: inhibition; also recorded: completely inhibited
